{"source": "patent US12084601B2", "about": "“Packaging patches having disinfecting sealing layer” (AMCOR FLEXIBLES NORTH AMERICA, INC., priority 2017, dated 2024)", "origin": "cited, not measured here", "data": [{"molecule": "[O][Cl+][O-]", "note": "[chlorine dioxide]", "values": [{"measurement": "Half-life of chlorine dioxide degradation (first order kinetics)", "setting": "ambient room light and temperature, depending on initial ClO2 concentration", "result": "2 to 3", "unit": "h"}, {"measurement": "Time for chlorine dioxide concentration in the package to reach levels sufficiently low for safe opening", "setting": "spontaneous degradation, prior packages", "result": "12 to 48", "unit": "h"}]}]}
